Source: patent publication US11814367B2, “Inhibitors of glycogen synthase 1 (GYS1) and methods of use thereof” (Maze Therapeutics, Inc., priority 2021, dated 2023)

Columns and labels:
[1] = biological target: hGYS1 enzyme (recombinant hGYS1/GN1 protein) (Homo sapiens (Human), UniProt P13807); assay: GYS1 coupled enzyme assay (PK/LDH); format: biochemical; conditions: hGYS1/GN1 50 nM, UDP-Glucose 0.8 mM, G6P 1 mM; geometric mean of at least 2 runs
[2] = biological target: hGYS2 enzyme (recombinant hGYS2/GN1 protein) (Homo sapiens (Human), UniProt P54840); assay: GYS2 coupled enzyme assay (PK/LDH); format: biochemical; conditions: geometric mean of at least 2 assay runs on separate days, read-out: Avg_IC50
Outline: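 Read-out: NADH loss at 340 nm, read each minute for 10 min, slope normalized to controls, duplicate % inhibition fit to Hill (0–100). Enzyme: 200 nM hGYS2/GN1; substrate 2 mM UDP-glucose plus 0.2% glycogen and 2 mM G6P; pH 7.5 Tris, 2.5% DMSO.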

Sequence of hGYS1 enzyme (recombinant hGYS1/GN1 protein) (P13807 whole entry): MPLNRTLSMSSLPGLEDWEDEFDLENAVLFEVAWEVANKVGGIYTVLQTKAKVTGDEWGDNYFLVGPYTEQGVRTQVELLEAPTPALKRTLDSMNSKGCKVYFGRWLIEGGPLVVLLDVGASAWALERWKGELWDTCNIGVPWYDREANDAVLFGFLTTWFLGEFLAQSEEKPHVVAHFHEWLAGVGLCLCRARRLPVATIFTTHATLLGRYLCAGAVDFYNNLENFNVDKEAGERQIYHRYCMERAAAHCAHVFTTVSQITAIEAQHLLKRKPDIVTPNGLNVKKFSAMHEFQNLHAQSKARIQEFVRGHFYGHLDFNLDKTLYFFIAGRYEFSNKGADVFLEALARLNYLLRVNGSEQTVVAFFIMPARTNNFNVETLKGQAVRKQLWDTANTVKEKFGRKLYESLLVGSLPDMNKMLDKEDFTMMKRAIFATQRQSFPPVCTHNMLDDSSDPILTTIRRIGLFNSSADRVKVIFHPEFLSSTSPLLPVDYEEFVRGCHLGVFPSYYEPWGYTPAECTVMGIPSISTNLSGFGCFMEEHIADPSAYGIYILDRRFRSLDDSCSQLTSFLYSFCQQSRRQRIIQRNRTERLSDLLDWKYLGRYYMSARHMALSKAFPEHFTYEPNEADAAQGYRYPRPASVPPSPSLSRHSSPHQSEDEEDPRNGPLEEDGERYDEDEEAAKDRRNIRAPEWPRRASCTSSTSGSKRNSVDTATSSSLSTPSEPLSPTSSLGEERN
Sequence of hGYS1 enzyme (recombinant hGYS1/GN1 protein) (P46976 whole entry partner): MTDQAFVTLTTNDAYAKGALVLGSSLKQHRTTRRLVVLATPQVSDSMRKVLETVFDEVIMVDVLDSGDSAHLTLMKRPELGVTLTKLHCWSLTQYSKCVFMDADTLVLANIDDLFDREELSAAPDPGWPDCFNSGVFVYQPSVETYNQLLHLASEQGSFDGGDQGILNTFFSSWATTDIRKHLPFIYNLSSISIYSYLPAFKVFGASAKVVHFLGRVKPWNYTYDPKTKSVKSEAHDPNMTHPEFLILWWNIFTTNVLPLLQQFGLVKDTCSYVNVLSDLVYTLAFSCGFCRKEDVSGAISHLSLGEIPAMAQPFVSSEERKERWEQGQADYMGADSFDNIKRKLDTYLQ
Sequence of hGYS2 enzyme (recombinant hGYS2/GN1 protein) (P54840 whole entry): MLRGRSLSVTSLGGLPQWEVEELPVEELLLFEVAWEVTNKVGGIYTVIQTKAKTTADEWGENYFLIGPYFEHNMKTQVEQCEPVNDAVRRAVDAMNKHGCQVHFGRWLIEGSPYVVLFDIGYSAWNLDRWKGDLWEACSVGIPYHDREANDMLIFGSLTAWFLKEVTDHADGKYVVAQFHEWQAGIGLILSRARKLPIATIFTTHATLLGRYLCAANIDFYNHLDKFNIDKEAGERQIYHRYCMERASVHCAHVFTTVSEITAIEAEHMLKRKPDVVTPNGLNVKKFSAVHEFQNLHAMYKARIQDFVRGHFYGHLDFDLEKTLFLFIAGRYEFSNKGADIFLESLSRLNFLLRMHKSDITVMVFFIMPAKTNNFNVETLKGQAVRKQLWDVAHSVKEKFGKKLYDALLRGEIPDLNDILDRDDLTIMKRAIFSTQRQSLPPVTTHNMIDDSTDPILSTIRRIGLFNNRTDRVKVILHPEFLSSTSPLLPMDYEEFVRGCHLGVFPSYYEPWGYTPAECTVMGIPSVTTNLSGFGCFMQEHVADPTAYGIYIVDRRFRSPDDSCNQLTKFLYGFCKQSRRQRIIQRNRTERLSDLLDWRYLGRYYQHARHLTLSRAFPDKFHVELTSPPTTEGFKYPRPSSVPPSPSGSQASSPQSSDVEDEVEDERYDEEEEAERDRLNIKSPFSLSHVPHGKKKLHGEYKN
Sequence of hGYS2 enzyme (recombinant hGYS2/GN1 protein) (P46976 whole entry partner): as the sequence (P46976 whole entry partner) above

| Structure (SMILES) | IC50 [1] | IC50 [2] |
| --- | --- | --- |
| CC(C)c1ccc([C@@H](NC(=O)[C@@H]2CCCN2C(=O)Cc2cnn[nH]2)c2cccc3[nH]c(=O)[nH]c23)cc1 [Compound 644, (2S)-N-[(R)-(2-oxo-2,3-dihydro-1H-1,3-benzodiazol-4-yl)[4-(propan-2-yl)phenyl]methyl]-1-[2-(1H-1,2,3-triazol-5-yl)acetyl]pyrrolidine-2-carboxamide] | 273 nM | > 100000 nM |
| CC(C)c1ccc([C@@H](NC(=O)[C@@H]2C[C@@H](F)CN2C(=O)CCn2cncn2)c2ccccc2)cc1 [Compound 35, (2S,4R)-4-fluoro-N-[(S)-phenyl[4-(propan-2-yl)phenyl]methyl]-1-[3-(1H-1,2,4-triazol-1-yl)propanoyl]pyrrolidine-2-carboxamide] | 185 nM | > 100000 nM |
| CC(=O)N1CC[C@H](O)[C@H]1C(=O)N[C@@H](c1ccccc1)c1ccc(C(C)C)cc1 [Compound 206, (2S,3S)-1-acetyl-3-hydroxy-N-[(S)-phenyl[4-(propan-2-yl)phenyl]methyl]pyrrolidine-2-carboxamide] | 2480 nM | > 100000 nM |
| CC(C)c1ccc([C@@H](NC(=O)[C@@H]2C[C@@H](F)CN2C(=O)C(C)c2ccccn2)c2ccccc2)cc1 (stereo partly drawn) [Compound 64, (2S,4R)-4-fluoro-N-[(S)-phenyl[4-(propan-2-yl)phenyl]methyl]-1-[2-(pyridin-2-yl)propanoyl]pyrrolidine-2-carboxamide] | 81 nM | > 100000 nM |
| CC(=O)N[C@H](CC(N)=O)C(=O)N1C[C@H](F)C[C@H]1C(=O)N[C@@H](c1ccccc1)c1ccc(C(C)C)cc1 [Compound 209, (2S,4R)-1-[(2R)-3-carbamoyl-2-acetamidopropanoyl]-4-fluoro-N-[(S)-phenyl[4-(propan-2-yl)phenyl]methyl]pyrrolidine-2-carboxamide] | 91 nM | > 100000 nM |
| CC(C)c1ccc([C@@H](NC(=O)[C@@H]2CCCN2C(=O)C2CC2)c2ccccc2)cc1 [Compound 203, (2S)-1-cyclopropanecarbonyl-N-[(S)-phenyl[4-(propan-2-yl)phenyl]methyl]pyrrolidine-2-carboxamide] | 862 nM | > 100000 nM |
| CC(=O)N1CC2(CC(C(=O)N3C[C@H](F)C[C@H]3C(=O)N[C@@H](c3ccccc3)c3ccc(C(C)C)cc3)=NO2)C1 [Compound 151, (2S,4R)-1-{2-acetyl-5-oxa-2,6-diazaspiro[3.4]oct-6-ene-7-carbonyl}-4-fluoro-N-[(S)-phenyl[4-(propan-2-yl)phenyl]methyl]pyrrolidine-2-carboxamide] | 241 nM | > 100000 nM |
| CC(C)c1ccc([C@@H](NC(=O)[C@@H]2C[C@@H](F)CN2C(=O)[C@@H]2CCC(=O)N2C)c2ccccc2)cc1 [Compound 57, (2S,4R)-4-fluoro-1-[(2S)-1-methyl-5-oxopyrrolidine-2-carbonyl]-N-[(S)-phenyl[4-(propan-2-yl)phenyl]methyl]pyrrolidine-2-carboxamide] | 231 nM | > 100000 nM |
| CC(=O)NCC(=O)N1CCC[C@H]1C(=O)N[C@@H](c1ccccc1)c1ccc(C2CC2)c(F)c1 [Compound 421, (2S)-N-[(S)-(4-cyclopropyl-3-fluorophenyl)(phenyl)methyl]-1-(2-acetamidoacetyl) pyrrolidine-2-carboxamide] | 294 nM | > 100000 nM |
| CC(C)c1ccc([C@@H](NC(=O)[C@@H]2C[C@@H](F)CN2C(=O)CCC(=O)N2CCCC2)c2ccccc2)cc1 [Compound 108, (2S,4R)-4-fluoro-1-[4-oxo-4-(pyrrolidin-1-yl)butanoyl]-N-[(S)-phenyl[4-(propan-2-yl)phenyl]methyl]pyrrolidine-2-carboxamide] | 77 nM | > 100000 nM |
| Cc1ccc(CCC(=O)N2C[C@H](F)C[C@H]2C(=O)N[C@@H](c2ccccc2)c2ccc(C(C)C)cc2)nc1 [Compound 101, (2S,4R)-4-fluoro-1-[3-(5-methylpyridin-2-yl)propanoyl]-N-[(S)-phenyl[4-(propan-2-yl)phenyl]methyl]pyrrolidine-2-carboxamide] | 54 nM | > 100000 nM |
| CC(=O)N1C[C@H](F)C[C@H]1C(=O)N[C@@H](c1ccccc1)c1ccc(C2CC2)c(F)c1 [Compound 418, (2S,4R)-1-acetyl-N-[(S)-(4-cyclopropyl-3-fluorophenyl)(phenyl)methyl]-4-fluoropyrrolidine-2-carboxamide] | 697 nM | > 100000 nM |
| CC(C)c1ccc([C@@H](NC(=O)[C@@H]2C[C@@H](F)CN2C(=O)C2CCNC(=O)C2)c2ccccc2)cc1 (stereo partly drawn) [Compound 93, (2S,4R)-4-fluoro-1-(2-oxopiperidin-4-carbonyl)-N-[(S)-phenyl[4-(propan-2-yl)phenyl]methyl]pyrrolidine-2-carboxamide] | 108 nM | > 100000 nM |
| CC(C)c1ccc([C@@H](NC(=O)[C@@H]2C[C@@H](F)CN2C(=O)Cn2cn[nH]c2=O)c2ccccc2)nc1 [Compound 288, (2S,4R)-4-fluoro-1-[2-(5-oxo-4,5-dihydro-1H-1,2,4-triazol-4-yl)acetyl]-N-[(S)-phenyl[5-(propan-2-yl)pyridin-2-yl]methyl]pyrrolidine-2-carboxamide] | 109 nM | > 100000 nM |
| Cc1ncccc1CCC(=O)N1C[C@H](F)C[C@H]1C(=O)N[C@@H](c1ccccc1)c1ccc(C(C)C)cc1 [Compound 102, (2S,4R)-4-fluoro-1-[3-(2-methylpyridin-3-yl)propanoyl]-N-[(S)-phenyl[4-(propan-2-yl)phenyl]methyl]pyrrolidine-2-carboxamide] | 58 nM | > 100000 nM |
| Cc1nnc(CCC(=O)N2C[C@H](F)C[C@H]2C(=O)N[C@@H](c2ccccc2)c2ccc(C(C)C)cc2)s1 [Compound 62, (2S,4R)-4-fluoro-1-[3-(5-methyl-1,3,4-thiadiazol-2-yl)propanoyl]-N-[(S)-phenyl[4-(propan-2-yl)phenyl]methyl]pyrrolidine-2-carboxamide] | 64 nM | > 100000 nM |
| CC(C)c1ccc([C@@H](NC(=O)[C@@H]2C[C@@H](F)CN2C(=O)Cn2cnnn2)c2ccccc2)cc1 [Compound 9, (2S,4R)-4-fluoro-N-[(S)-phenyl[4-(propan-2-yl)phenyl]methyl]-1-[2-(1H-1,2,3-tetrazol-1-yl)acetyl]pyrrolidine-2-carboxamide] | 59 nM | > 100000 nM |
| CC(=O)N1CCN(CC(=O)N2C[C@H](F)C[C@H]2C(=O)N[C@@H](c2ccccc2)c2ccc(C(C)C)cc2)C(=O)C1 [Compound 160, (2S,4R)-1-[2-(4-acetyl-2-oxopiperazin-1-yl)acetyl]-4-fluoro-N-[(S)-phenyl[4-(propan-2-yl)phenyl]methyl]pyrrolidine-2-carboxamide] | 69 nM | > 100000 nM |

Stronger by IC50 [1], values ahead:

| IC50 [1] | IC50 [2] | Structure (SMILES) |
| --- | --- | --- |
| 26 nM | > 100000 nM | Cc1cc(CC(=O)N2C[C@H](F)C[C@H]2C(=O)N[C@@H](c2ccccc2)c2ccc(C(C)C)cc2)on1 [Compound 40, (2S,4R)-4-fluoro-1-[2-(3-methyl-1,2-oxazol-5-yl)acetyl]-N-[(S)-phenyl[4-(propan-2-yl)phenyl]methyl]pyrrolidine-2-carboxamide] |
| 51 nM | > 100000 nM | CC(C)c1ccc([C@@H](NC(=O)[C@@H]2C[C@@H](F)CN2C(=O)Cc2cccnc2)c2ccccc2)cc1 [Compound 38, (2S,4R)-4-fluoro-N-[(S)-phenyl[4-(propan-2-yl)phenyl]methyl]-1-[2-(pyridin-3-yl)acetyl]pyrrolidine-2-carboxamide] |
| 45 nM | > 100000 nM | CC(C)c1ccc([C@@H](NC(=O)[C@@H]2C[C@@H](F)CN2C(=O)Cc2ccccn2)c2ccccc2)cc1 [Compound 37, (2S,4R)-4-fluoro-N-[(S)-phenyl[4-(propan-2-yl)phenyl]methyl]-1-[2-(pyridin-2-yl)acetyl]pyrrolidine-2-carboxamide] |
| 16 nM | > 100000 nM | CC(C)c1ccc([C@@H](NC(=O)[C@@H]2C[C@@H](F)CN2C(=O)Cc2nnn[nH]2)c2ccccc2)cc1F [Compound 328, (2S,4R)-4-fluoro-N-[(S)-[3-fluoro-4-(propan-2-yl)phenyl](phenyl)methyl]-1-[2-(1H-1,2,3,4-tetrazol-5-yl)acetyl]pyrrolidine-2-carboxamide] |
| 40 nM | > 100000 nM | CC(C)c1ccc([C@@H](NC(=O)[C@@H]2C[C@@H](F)CN2C(=O)Cn2ccnn2)c2ccccc2)cc1 (stereo in doubt) [Compound 222, (2RS,4R)-4-fluoro-N-[(S)-phenyl[4-(propan-2-yl)phenyl]methyl]-1-[2-(1H-1,2,3-triazol-1-yl)acetyl]pyrrolidine-2-carboxamide] |
| 21 nM | > 100000 nM | CC(C)c1ccc([C@@H](NC(=O)[C@@H]2C[C@@H](F)CN2C(=O)Cc2ccc3ncccc3c2)c2ccccc2)cc1 [Compound 96, (2S,4R)-4-fluoro-N-[(S)-phenyl[4-(propan-2-yl)phenyl]methyl]-1-[2-(quinolin-6-yl)acetyl]pyrrolidine-2-carboxamide] |
| 23 nM | > 100000 nM | CC(C)c1ccc([C@@H](NC(=O)[C@@H]2C[C@@H](F)CN2C(=O)Cn2ccnn2)c2ccccc2)cc1F [Compound 331, (2S,4R)-4-fluoro-N-[(S)-[3-fluoro-4-(propan-2-yl)phenyl](phenyl)methyl]-1-[2-(1H-1,2,3-triazol-1-yl)acetyl]pyrrolidine-2-carboxamide] |
| 44 nM | > 100000 nM | COc1cccnc1CCC(=O)N1C[C@H](F)C[C@H]1C(=O)N[C@@H](c1ccccc1)c1ccc(C(C)C)cc1 [Compound 135, (2S,4R)-4-fluoro-1-[3-(3-methoxypyridin-2-yl)propanoyl]-N-[(S)-phenyl[4-(propan-2-yl)phenyl]methyl]pyrrolidine-2-carboxamide] |
